This passage reports inhibition results from PMC11233931, “Remodeling tumor‐associated macrophage for anti‐cancer effects by rational design of irreversible inhibition of mitogen‐activated protein kinase‐activated protein kinase 2” (MedComm, 2024).

As a reminder, the inhibition is the drop in the measured response relative to a control, in per cent.

Common to all, as to test: Eurofins kinase selectivity profile against 380 other human recombinant kinases (Table S2)
Common to all, as to assay type: biochemical

Test [1] concerns the target T1, 380 human recombinant protein kinases (Homo sapiens, UniProt Q9UEE5).
T1 construct: purchased Eurofins (Celle Lévescault)
T1 sequence (Q9UEE5 1-414): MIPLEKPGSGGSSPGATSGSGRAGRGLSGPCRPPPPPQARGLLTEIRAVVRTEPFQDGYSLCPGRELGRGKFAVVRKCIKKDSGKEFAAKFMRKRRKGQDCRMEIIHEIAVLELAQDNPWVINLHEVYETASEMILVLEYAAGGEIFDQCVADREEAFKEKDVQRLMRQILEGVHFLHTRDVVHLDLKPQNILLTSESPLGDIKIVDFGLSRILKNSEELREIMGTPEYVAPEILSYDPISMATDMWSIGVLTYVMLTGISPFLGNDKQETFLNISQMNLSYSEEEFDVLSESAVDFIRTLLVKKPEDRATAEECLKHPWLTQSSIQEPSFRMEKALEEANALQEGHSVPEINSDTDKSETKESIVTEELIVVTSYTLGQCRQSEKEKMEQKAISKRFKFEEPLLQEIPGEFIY
The note with it: DRAK1(h), read-out: Inhibition rate. An outline of the steps:
(§1)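 Profiling against 380 human recombinant kinases carried out by Eurofins at various compound concentrations.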

For test [2], the target named is T2, 380 human recombinant protein kinases (Homo sapiens, UniProt Q13153).
T2 construct: purchased Eurofins (Celle Lévescault)
Particulars: PAK1(h), read-out: Inhibition rate. In outline:
as §1

The target in test [3] is T3, 380 human recombinant protein kinases (Homo sapiens, UniProt Q9Y5S2).
T3 construct: purchased Eurofins (Celle Lévescault)
Particulars: MRCKβ(h), read-out: Inhibition rate. In outline:
as §1

In test [4] the target is T4, 380 human recombinant protein kinases (Homo sapiens, UniProt P45984).
T4 construct: purchased Eurofins (Celle Lévescault)
The note with it: JNK2α2(h), read-out: Inhibition rate. An outline of the steps:
as §1

For test [5], the target named is T5, 380 human recombinant protein kinases (Homo sapiens, UniProt P36888).
T5 construct: purchased Eurofins (Celle Lévescault)
T5 sequence (P36888 27-993): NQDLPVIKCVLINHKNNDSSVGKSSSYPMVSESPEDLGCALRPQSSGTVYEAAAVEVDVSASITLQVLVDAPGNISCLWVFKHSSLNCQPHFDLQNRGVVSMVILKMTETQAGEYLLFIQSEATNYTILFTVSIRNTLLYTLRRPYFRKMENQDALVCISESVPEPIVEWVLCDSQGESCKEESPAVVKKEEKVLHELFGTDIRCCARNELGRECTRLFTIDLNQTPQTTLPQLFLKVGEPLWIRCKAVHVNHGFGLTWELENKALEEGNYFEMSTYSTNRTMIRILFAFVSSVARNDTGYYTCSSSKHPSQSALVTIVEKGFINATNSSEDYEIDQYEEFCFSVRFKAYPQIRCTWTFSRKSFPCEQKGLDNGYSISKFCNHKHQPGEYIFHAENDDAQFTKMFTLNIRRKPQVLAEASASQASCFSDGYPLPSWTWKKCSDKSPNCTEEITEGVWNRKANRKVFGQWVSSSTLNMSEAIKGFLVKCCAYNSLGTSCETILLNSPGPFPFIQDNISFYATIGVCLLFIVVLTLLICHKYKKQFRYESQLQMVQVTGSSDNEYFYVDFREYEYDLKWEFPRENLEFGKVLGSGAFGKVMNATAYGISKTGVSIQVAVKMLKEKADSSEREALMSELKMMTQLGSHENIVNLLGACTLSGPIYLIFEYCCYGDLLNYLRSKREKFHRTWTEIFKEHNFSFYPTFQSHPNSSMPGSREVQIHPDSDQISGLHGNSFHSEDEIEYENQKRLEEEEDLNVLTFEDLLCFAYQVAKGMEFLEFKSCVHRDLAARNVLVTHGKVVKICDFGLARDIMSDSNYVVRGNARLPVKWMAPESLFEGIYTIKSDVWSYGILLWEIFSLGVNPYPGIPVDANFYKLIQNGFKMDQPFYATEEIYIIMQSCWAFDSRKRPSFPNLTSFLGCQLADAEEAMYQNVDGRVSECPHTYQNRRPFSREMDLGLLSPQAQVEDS
The note with it: Flt3(h), read-out: Inhibition rate. In outline: as §1

The target in test [6] is T6, 380 human recombinant protein kinases (Homo sapiens, UniProt O75676).
T6 construct: purchased Eurofins (Celle Lévescault)
Particulars: MSK2(h), read-out: Inhibition rate. An outline of the steps: as §1

T6 sequence (O75676 whole entry): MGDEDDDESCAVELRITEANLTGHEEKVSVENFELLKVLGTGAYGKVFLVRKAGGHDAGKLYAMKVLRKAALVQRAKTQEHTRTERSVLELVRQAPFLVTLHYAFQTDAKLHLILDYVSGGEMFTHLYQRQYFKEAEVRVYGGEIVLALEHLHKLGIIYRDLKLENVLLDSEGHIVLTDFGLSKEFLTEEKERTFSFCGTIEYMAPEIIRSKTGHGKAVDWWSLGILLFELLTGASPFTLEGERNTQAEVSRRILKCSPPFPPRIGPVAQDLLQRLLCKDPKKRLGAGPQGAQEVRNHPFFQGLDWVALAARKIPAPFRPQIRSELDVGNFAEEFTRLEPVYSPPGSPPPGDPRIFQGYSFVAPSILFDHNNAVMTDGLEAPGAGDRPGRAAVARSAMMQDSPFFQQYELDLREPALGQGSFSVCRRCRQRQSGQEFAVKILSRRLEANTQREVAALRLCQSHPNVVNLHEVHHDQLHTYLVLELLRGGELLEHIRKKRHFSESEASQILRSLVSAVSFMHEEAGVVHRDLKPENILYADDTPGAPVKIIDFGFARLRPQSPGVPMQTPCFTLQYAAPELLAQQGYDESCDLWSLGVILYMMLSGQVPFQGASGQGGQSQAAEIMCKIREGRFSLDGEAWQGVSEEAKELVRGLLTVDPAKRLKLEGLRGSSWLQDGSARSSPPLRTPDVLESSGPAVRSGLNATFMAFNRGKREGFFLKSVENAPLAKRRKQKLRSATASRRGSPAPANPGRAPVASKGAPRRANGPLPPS
T4 sequence (P45984 whole entry): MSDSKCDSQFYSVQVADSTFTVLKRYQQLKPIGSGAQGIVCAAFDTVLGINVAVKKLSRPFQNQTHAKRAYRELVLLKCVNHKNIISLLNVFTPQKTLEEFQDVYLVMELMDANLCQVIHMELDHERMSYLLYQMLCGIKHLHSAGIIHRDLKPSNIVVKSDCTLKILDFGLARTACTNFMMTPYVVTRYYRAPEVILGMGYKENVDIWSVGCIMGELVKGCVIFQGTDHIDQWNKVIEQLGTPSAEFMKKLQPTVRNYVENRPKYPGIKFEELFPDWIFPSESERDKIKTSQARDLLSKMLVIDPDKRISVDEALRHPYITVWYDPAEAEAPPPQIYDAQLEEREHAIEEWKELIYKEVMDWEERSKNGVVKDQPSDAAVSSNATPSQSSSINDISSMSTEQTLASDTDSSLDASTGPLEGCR
T3 sequence (Q9Y5S2 whole entry): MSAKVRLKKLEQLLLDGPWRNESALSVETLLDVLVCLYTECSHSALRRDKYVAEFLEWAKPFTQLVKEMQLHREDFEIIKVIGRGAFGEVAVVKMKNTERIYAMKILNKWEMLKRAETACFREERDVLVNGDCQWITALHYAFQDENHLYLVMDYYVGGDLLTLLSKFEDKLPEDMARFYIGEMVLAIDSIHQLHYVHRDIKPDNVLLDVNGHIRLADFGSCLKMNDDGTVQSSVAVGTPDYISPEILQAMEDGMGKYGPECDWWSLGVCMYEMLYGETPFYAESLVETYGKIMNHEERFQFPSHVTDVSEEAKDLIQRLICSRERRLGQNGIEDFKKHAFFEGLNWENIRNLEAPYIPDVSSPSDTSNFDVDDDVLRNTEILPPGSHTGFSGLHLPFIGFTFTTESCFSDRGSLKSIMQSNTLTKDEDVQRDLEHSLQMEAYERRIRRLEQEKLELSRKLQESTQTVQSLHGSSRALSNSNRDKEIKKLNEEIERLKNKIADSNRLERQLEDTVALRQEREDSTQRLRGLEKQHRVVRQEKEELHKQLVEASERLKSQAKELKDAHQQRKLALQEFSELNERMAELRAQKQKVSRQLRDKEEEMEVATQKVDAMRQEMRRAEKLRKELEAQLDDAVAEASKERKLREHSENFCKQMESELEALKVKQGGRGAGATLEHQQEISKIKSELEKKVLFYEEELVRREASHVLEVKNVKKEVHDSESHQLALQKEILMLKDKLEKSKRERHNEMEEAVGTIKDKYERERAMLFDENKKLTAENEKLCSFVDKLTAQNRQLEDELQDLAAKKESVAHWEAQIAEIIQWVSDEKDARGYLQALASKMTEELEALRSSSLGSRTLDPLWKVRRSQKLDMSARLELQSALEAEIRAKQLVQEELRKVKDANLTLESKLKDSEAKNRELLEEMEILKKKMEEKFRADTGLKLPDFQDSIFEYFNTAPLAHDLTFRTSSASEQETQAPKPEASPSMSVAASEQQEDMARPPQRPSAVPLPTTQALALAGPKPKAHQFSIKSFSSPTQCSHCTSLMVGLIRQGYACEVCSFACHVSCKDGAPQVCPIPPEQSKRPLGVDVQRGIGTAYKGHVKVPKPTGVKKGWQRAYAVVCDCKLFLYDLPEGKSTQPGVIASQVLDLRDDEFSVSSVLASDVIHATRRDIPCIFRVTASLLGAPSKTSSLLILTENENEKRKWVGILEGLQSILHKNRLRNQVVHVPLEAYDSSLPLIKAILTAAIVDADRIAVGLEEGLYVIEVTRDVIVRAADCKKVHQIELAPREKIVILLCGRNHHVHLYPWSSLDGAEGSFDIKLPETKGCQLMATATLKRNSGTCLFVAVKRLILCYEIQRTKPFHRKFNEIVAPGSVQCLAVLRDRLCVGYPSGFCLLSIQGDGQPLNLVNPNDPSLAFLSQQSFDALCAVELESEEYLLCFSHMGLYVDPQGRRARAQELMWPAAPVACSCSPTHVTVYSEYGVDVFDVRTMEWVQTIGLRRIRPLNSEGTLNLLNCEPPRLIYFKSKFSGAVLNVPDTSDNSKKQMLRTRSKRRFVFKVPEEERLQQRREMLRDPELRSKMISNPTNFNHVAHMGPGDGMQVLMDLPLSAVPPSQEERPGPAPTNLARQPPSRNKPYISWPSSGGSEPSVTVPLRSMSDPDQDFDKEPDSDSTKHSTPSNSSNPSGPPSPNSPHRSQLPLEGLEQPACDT
T2 sequence (Q13153 whole entry): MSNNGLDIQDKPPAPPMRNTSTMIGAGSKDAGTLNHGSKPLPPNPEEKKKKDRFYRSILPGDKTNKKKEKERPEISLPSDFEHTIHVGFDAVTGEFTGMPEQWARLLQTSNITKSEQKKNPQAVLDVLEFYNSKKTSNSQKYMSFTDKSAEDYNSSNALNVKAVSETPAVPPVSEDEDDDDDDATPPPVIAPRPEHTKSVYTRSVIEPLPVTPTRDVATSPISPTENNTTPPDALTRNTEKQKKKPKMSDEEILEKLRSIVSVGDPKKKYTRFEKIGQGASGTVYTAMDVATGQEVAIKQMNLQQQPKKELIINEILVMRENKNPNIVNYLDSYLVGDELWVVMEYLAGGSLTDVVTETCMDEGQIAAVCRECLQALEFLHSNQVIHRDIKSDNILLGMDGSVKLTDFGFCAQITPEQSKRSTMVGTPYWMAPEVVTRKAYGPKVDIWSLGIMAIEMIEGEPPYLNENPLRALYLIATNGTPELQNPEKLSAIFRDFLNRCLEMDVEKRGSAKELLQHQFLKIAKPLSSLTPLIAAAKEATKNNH

Take `C=CC(=O)Nc1cc(-c2cc(-c3cc4c([nH]3)CCNC4=O)ccn2)ccc1OC(F)(F)F` [compound 11]: the inhibition at 0.01 µM was 13% in test [1] (10 nM); -10% in test [2] (10 nM); 8% in test [3] (10 nM); -6% in test [4] (10 nM); -12% in test [5] (10 nM); -8% in test [6] (10 nM). Also, the inhibition at 0.1 µM is 41% in test [1] (100 nM); -7% in test [2] (100 nM); 0% in test [3] (100 nM); 5% in test [4] (100 nM); -5% in test [5] (100 nM); -5% in test [6] (100 nM). The inhibition at 1 µM in test [1] (1000 nM) was 82%; in test [2] (1000 nM) it was -5%; in test [3] (1000 nM), 10%; in test [4] (1000 nM) it was 23%; in test [5] (1000 nM), 24%; in test [6] (1000 nM), -13%.
